Literature values, collected in patent publication US20240216476A1, “COMBINATION OF BITTER RECEPTOR AGONIST AND GUT-SIGNALING COMPOUND” (AARDVARK THERAPEUTICS, INC., priority 2021, published 2024).
Where two headings read alike, the source gives them in different places. Marks after values point to notes of the source that are not given here.

Assays:
[1] = tested on: C57BL/6 mice fed on HFD; settings: end of study, dulaglutide 0.6 mg/kg once weekly IP 12 weeks, liraglutide 0.3 mg/kg QD SC 38 days, cited from earlier work
[2] = cited from earlier work
[3] = tested on: ob/ob mice; settings: cited from earlier work
[4] = cited from earlier work; for Effect on Body Weight (placebo-adjusted change from baseline) / Effect on HbA1c (placebo-adjusted change from baseline) / Effect on Body Weight (placebo-adjusted change from baseline), percent: QD 24-26 weeks; for TG level change from baseline: placebo +19%
[5] = tested on: C57Bl/6J mice fed with high-fat diet; settings: alogliptin 0.03% (wt/wt) in diet for life span, cited from earlier work; for Control-adjusted Percent Change in Body Weight Gain / Control-adjusted Percent Change in Fasting Blood Glucose / Control-adjusted Percent Change in Insulin Level: sitagliptin 0.004% in diet 12 weeks; for Control-adjusted Percent Change in Body Weight Gain / Control-adjusted Percent Change in Fasting Blood Glucose / Control-adjusted Percent Change in Insulin Level / Control-adjusted Percent Change in Lipid Levels: TC / Control-adjusted Percent Change in Lipid Levels: TG: vildagliptin 30 mg/kg/day 7 weeks
[6] = tested on: NASH in vivo models; settings: cited from earlier work
[7] = exenatide 24 nmol/kg QD IP 4 weeks
[8] = vildagliptin 1.9 mg/kg BID 33 days
[9] = vildagliptin 6.3 mg/kg BID 33 days
[10] = semaglutide 3 mg, sitagliptin 100 mg, saxagliptin 2.5 mg, vildagliptin 50 mg, alogliptin 12.5 mg, linagliptin 5 mg
[11] = semaglutide 7 mg, sitagliptin 200 mg, saxagliptin 5 mg, vildagliptin 100 mg, alogliptin 25 mg
[12] = sitagliptin 0.0018% in diet 12 weeks, alogliptin 42.2 mg/kg/day 28 days
[13] = mouse model of diet-induced NASH, 10 mg/kg/day PO for eight weeks
[14] = mouse model of diet-induced NASH, 10 mg/kg/day PO for eight weeks, significantly
[15] = C57BL/6 mice on 60% high fat diet for 36 weeks, 0.3-3 mg/kg/day PO for 24 days

Dulaglutide: fusion protein GLP-1 receptor agonist
Control-adjusted Percent Change in Insulin Level [1]: −77%*
Control-adjusted Body Weight Gain [1, 7]: -8.1 g
Control-adjusted Percent Change in Body Weight [1, 7]: −15.9%*
Control-adjusted Percent Change in Fasting Blood Glucose ([1]; exenatide 24 nmol/kg QD IP 4 weeks, semaglutide 25 nmol/kg every two days SC 3 weeks): −16.3%*
Incidence of Hypoglycemic Episodes for Combination with Insulin (vs. Placebo) ([2]; in vivo): 14.7%*
Incidence of Hypoglycemic Episodes for Combination with Metformin (vs. Placebo) ([2]; in vivo): 0.7%
Incidence of Hypoglycemic Episodes for Combination with a Sulfonylurea (vs. Placebo) ([2]; in vivo): 3.3%

CCCCCCCCCCCCCCCC(=O)N[C@@H](CCC(=O)NCCCC[C@H](NC(=O)[C@H](C)NC(=O)[C@H](C)NC(=O)[C@H](CCC(N)=O)NC(=O)CNC(=O)[C@H](CCC(=O)O)NC(=O)[C@H](CC(C)C)NC(=O)[C@H](Cc1ccc(O)cc1)NC(=O)[C@H](CO)NC(=O)[C@H](CO)NC(=O)[C@@H](NC(=O)[C@H](CC(=O)O)NC(=O)[C@H](CO)NC(=O)[C@@H](NC(=O)[C@H](Cc1ccccc1)NC(=O)[C@@H](NC(=O)CNC(=O)[C@H](CCC(=O)O)NC(=O)[C@H](C)NC(=O)[C@@H](N)Cc1cnc[nH]1)[C@@H](C)O)[C@@H](C)O)C(C)C)C(=O)N[C@@H](CCC(=O)O)C(=O)N[C@@H](Cc1ccccc1)C(=O)N[C@H](C(=O)N[C@@H](C)C(=O)N[C@@H](Cc1c[nH]c2ccccc12)C(=O)N[C@@H](CC(C)C)C(=O)N[C@H](C(=O)N[C@@H](CCCNC(=N)N)C(=O)NCC(=O)N[C@@H](CCCNC(=N)N)C(=O)NCC(=O)O)C(C)C)[C@@H](C)CC)C(=O)O [Liraglutide]
Incidence of Hypoglycemic Episodes for Combination with Metformin (vs. Placebo) ([2]; prescribing information): 3.6%
Incidence of Hypoglycemic Episodes for Combination with a Sulfonylurea (vs. Placebo) ([2]; prescribing information, lixisenatide: add-on to a sulfonylurea with or without metformin): 7.5%

N#C[C@@H]1CCCN1C(=O)CNC12CC3CC(CC(O)(C3)C1)C2 [Vildagliptin]
Control-adjusted Percent Change in Fasting Blood Glucose [3, 8]: −29.4%
Control-adjusted Percent Change in TG Level [3, 8]: −29.3%
Control-adjusted Percent Change in Fasting Blood Glucose [3, 9]: −40.2%
Control-adjusted Percent Change in TG Level [3, 9]: −19.9%
Effect on Body Weight (placebo-adjusted change from baseline) [4, 10]: 50 mg: +0.6 kg
Effect on HbA1c (placebo-adjusted change from baseline) [4, 10]: 50 mg: −0.7%
Effect on Body Weight (placebo-adjusted change from baseline), percent ([4]; semaglutide 3 mg, sitagliptin 100 mg, saxagliptin 2.5 mg, vildagliptin 50 mg): (+0.65%)
Effect on Body Weight (placebo-adjusted change from baseline) [4, 11]: 100 mg: +1.2 kg
Effect on HbA1c (placebo-adjusted change from baseline) [4, 11]: 100 mg: −1.1%
Effect on Body Weight (placebo-adjusted change from baseline), percent ([4]; semaglutide 7 mg, sitagliptin 200 mg, saxagliptin 5 mg, vildagliptin 100 mg): (+1.3%)
TG level change from baseline ([4]; vildagliptin 50 mg QD 24 weeks): from baseline: +1%
TG level change from baseline ([4]; vildagliptin 100 mg QD 24 weeks): (50 mg) ^$ and +5%
Other lipid parameters, change ([4]; vildagliptin, all treatment groups, no significant between-treatment differences): changed by <3%
Control-adjusted Percent Change in Body Weight Gain [5]: +11%
Control-adjusted Percent Change in Fasting Blood Glucose [5]: −15.1%*
Control-adjusted Percent Change in Insulin Level [5]: −33.2%
Control-adjusted Percent Change in Lipid Levels: TC [5]: −51.5% in TC*
Control-adjusted Percent Change in Lipid Levels: TG [5]: −23.6% in TG**

Lixisenatide
Incidence of Hypoglycemic Episodes for Combination with Insulin (vs. Placebo) ([2]; in vivo): 28%*
Incidence of Hypoglycemic Episodes for Combination with Metformin (vs. Placebo) ([2]; in vivo): 3%
Incidence of Hypoglycemic Episodes for Combination with a Sulfonylurea (vs. Placebo) ([2]; in vivo): 15%**
Incidence of Hypoglycemic Episodes for Monotherapy at the Highest Dose (vs. Placebo) ([2]; in vivo): 2%

Cn1c(=O)cc(N2CCC[C@@H](N)C2)n(Cc2ccccc2C#N)c1=O [Alogliptin]
Control-adjusted Percent Change in HbA1c Level ([3]; alogliptin 42.2 mg/kg/day 28 days): −13%**
Control-adjusted Percent Change in Fasting Blood Glucose [3, 12]: −15.6%
Control-adjusted Percent Change in Insulin Level [3, 12]: +105%* *
Control-adjusted Percent Change in TG Level [3, 12]: −24.5%
HDL (mg/dL) ([4]; alogliptin 12.5 mg QD 26 weeks, placebo +1.3): HDL (mg/dL): +0.9
LDL (mg/dL) ([4]; alogliptin 12.5 mg QD 26 weeks, placebo +4.6): LDL (mg/dL): −0.5
TC (mg/dL) ([4]; alogliptin 12.5 mg QD 26 weeks, placebo +10.1): TC (mg/dL): −1.2
TG (mg/dL) ([4]; alogliptin 12.5 mg QD 26 weeks, placebo +26.5): TG (mg/dL): −5.8
Effect on Body Weight (placebo-adjusted change from baseline) [4, 10]: 12.5 mg: −0.27 kg
Effect on HbA1c (placebo-adjusted change from baseline) [4, 10]: 12.5 mg: −0.54%
Effect on Body Weight (placebo-adjusted change from baseline) [4, 11]: 25 mg: −0.4 kg
Effect on HbA1c (placebo-adjusted change from baseline) [4, 11]: 25 mg: −0.57%
Control-adjusted Percent Change in HbA1c Level [5]: −8.8%
Control-adjusted Percent Change in Lipid Levels: LDL [5]: −16.4% in LDL
Control-adjusted Percent Change in Body Weight Gain [5]: −32.6%*
Control-adjusted Percent Change in Fasting Blood Glucose [5]: −10.1%
Control-adjusted Percent Change in Insulin Level [5]: -47.9%*
Control-adjusted Percent Change in Lipid Levels: TC [5]: −1.1% in TC
Control-adjusted Percent Change in Lipid Levels: TG [5]: −19.2% in TG*

Cc1cc(OCP2(=O)OCC[C@@H](c3cccc(Cl)c3)O2)cc(C)c1Cc1ccc(O)c(C(C)C)c1 (stereo partly drawn) [VK2809]
NAS score, mean improvement [6, 13]: (a 40% mean
all subcomponents of NAS (inflammation, ballooning, and steatosis) [6, 13]: Improvements in all
liver contents of triglyceride, cholesterol, collagen, and hydroxyproline [6, 14]: improved liver contents
liver fibrosis on histopathology [6, 14]: improved NAS score
plasma triglycerides and cholesterol [6, 14]: reduced plasma

CC(C)c1cc(Oc2c(Cl)cc(-n3nc(C#N)c(=O)[nH]c3=O)cc2Cl)n[nH]c1=O [Resmetirom (MGL-3196)]
insulin sensitivity [6, 15]: Improved insulin
reduction of serum ALT [6, 15]: (46%), free fatty acids
reduction of serum cholesterol [6, 15]: (67%).
reduction of serum free fatty acids [6, 15]: (30%), and cholesterol
steatosis, fibrosis or inflammation in treated livers [6, 15]: No detectable

CCCCOCCOc1ccc(-c2ccc3c(c2)/C=C(/C(=O)Nc2ccc([S@@+]([O-])Cc4cncn4CCC)cc2)CCCN3CC(C)C)cc1 [Cenicriviroc]
intrahepatic accumulation of inflammatory macrophages ([6]; Male C57BL/6N mice fed CDAHFD, IP, 30 mg/kg/day for 4 or 14 weeks): Inhibited intrahepatic
frequency of intrahepatic anti-inflammatory macrophages ([6]; Male C57BL/6N mice fed CDAHFD, IP, 30 mg/kg/day for 14 weeks): weeks, and increased
fibrosis on histopathology ([6]; Male C57BL/6N mice fed CDAHFD, IP, only with 30 mg/kg/day for 14 weeks): Significantly improved
